Measured values reported in US20260191968A1, “PROTAC DEGRADERS OF MLLT1 AND/OR MLLT3” (DARK BLUE THERAPEUTICS LTD, priority 2024, published 2026).

Experiments:
Assay type in all cases: cell-based
MV4-11 cells [1] = assay: MV4-11 cellular proliferative assay, Assay Format A (CellTiter-Glo, 120 hours); details: Homo sapiens
Description: An MV4-11 proliferation assay was used to test the ability of compounds to reduce cell viability. MV4-11 cells (ATCC #CRL9591) were grown in IMDM medium (11510596, Gibco) supplemented with 10% fetal bovine serum (F7524, Gibco) and 1% Penicillin/Streptomycin (15140-122, Gibco) at 37° C. with 5% CO2. Cells were seeded in 384-well Elplasia plates (4447, Corning) at a density of 50 cells/well and treated with vehicle (DMSO) or compounds (10 serial semi-log dilutions, 30 μM as top concentration).
After 120 hours of treatment, cells were incubated for 10 min at RT with the CellTiter-Glo (CTG) reagent (G7571, Promega). Measurement of the luminescence signal was performed on a microplate reader (Ensight, PerkinElmer). CTG reagent measures the amount of ATP, which is directly proportional to the number of cells, to determine the number of viable cells in culture.
The data were analysed as follows:
where x is the measured raw signal value of a well, (cr) is the median of the measured signal values for the Central Reference (DMSO) wells on a plate, (sr) is the median of the measured signal values for the Scale Reference (reference compound) wells on a plate.
where the experimental set-up assumes the Hill parameters in certain ranges: S0~Central Reference (CR) from normalization (=Bottom), Sinf~Scale Reference (SR) from normalization (=Top), nHill~1, AC50~within the measured concentration range.

MLLT1 = target: T1, MLLT1 (Homo sapiens, UniProt Q03111); assay: MLLT1 degradation assay in MV4-11 cells (JESS chemiluminescent detection), three concentrations, 24 h; details: with respect to DMSO control
T1 construct: host or cells: MV4-11
T1 sequence (Q03111 1-559): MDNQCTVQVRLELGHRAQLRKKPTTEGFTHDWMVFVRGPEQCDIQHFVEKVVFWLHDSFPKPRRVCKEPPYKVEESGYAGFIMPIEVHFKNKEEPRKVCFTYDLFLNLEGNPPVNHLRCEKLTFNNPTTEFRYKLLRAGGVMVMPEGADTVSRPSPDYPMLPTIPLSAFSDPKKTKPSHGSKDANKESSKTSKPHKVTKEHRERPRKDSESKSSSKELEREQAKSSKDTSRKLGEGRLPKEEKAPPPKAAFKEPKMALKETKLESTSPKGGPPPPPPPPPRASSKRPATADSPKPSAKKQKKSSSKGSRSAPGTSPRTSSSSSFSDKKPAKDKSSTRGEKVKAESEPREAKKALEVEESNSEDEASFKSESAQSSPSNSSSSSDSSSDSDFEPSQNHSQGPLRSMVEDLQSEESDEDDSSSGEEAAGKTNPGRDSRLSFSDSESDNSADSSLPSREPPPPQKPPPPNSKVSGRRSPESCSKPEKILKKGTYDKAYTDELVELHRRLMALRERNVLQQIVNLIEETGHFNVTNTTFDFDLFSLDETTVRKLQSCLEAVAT
In short: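 Read-out is % MLLT1 degradation versus DMSO, from band peak areas on a JESS chemiluminescent system. Cells (MV4-11) were exposed for 24 h at 37° C to three compound levels, 10, 100 and 1000 nM, in 0.1% DMSO.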

MV4-11 cells [2] = assay: MV4-11 cellular proliferative assay, Assay Format B (CTG 2.0, 168 h); details: Homo sapiens, 168 h (7 days), CTG 2.0, read-out: IC50 (MV4-11 cellular proliferative assay, Assay format B)
In short: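 Viability read by CellTiter-Glo 2.0 luminescence after 7-day (168 h) compound exposure of MV4-11 cells in IMDM/10% FBS. Ten 3-fold concentrations starting at 1 uM or 100 nM, 0.3% final DMSO; curves normalised to DMSO control, four-parameter fit.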

CN1CCC[C@@H]1c1cc2cnc(NC(=O)c3cccc(CCCNc4cccc5c4C(=O)N(C4CCC(=O)NC4=O)C5=O)c3)cc2[nH]1 (stereo partly drawn) [Example 45, 3-(3-((2-(2,6-dioxopiperidin-3-yl)-1,3-dioxoisoindolin-4-yl)amino)propyl)-N-(2-((R)-1-methylpyrrolidin-2-yl)-1H-pyrrolo[3,2-c]pyridin-6-yl)benzamide]
IC50 (MV4-11 cells [1]): ≤ 100 nM | MLLT1% Degradation @ 0.01 μM (MLLT1): A (Category A: A ≥ 75% degradation) | MLLT1% Degradation @ 0.1 μM (MLLT1): A (Category A: A ≥ 75% degradation) | MLLT1% Degradation @ 1 μM (MLLT1): A (Category A: A ≥ 75% degradation)

CN1CCC[C@@H]1c1cc2cnc(NC(=O)c3ccc(OCCCC#Cc4cccc5c4CN(C4CCC(=O)NC4=O)C5=O)cc3)cc2[nH]1 (stereo partly drawn) [Example 56, 4-((5-(2-(2,6-dioxopiperidin-3-yl)-1-oxoisoindolin-4-yl)pent-4-yn-1-yl)oxy)-N-(2-((R)-1-methylpyrrolidin-2-yl)-1H-pyrrolo[3,2-c]pyridin-6-yl)benzamide]
IC50 (MV4-11 cells [1]): ≤ 100 nM | MLLT1% Degradation @ 0.01 μM (MLLT1): A (Category A: A ≥ 75% degradation) | MLLT1% Degradation @ 0.1 μM (MLLT1): A (Category A: A ≥ 75% degradation) | MLLT1% Degradation @ 1 μM (MLLT1): A (Category A: A ≥ 75% degradation)

CN1CCC[C@@H]1c1cc2cnc(NC(=O)c3ccc(-c4cnn(CCCC#Cc5cccc6c5CN(C5CCC(=O)NC5=O)C6=O)c4)cc3)cc2[nH]1 (stereo partly drawn) [Example 21, 4-(1-(5-(2-(2,6-dioxopiperidin-3-yl)-1-oxoisoindolin-4-yl)pent-4-yn-1-yl)-1H-pyrazol-4-yl)-N-(2-((R)-1-methylpyrrolidin-2-yl)-1H-pyrrolo[3,2-c]pyridin-6-yl)benzamide]
IC50 (MV4-11 cells [1]): ≤ 100 nM | MLLT1% Degradation @ 0.01 μM (MLLT1): A (Category A: A ≥ 75% degradation) | MLLT1% Degradation @ 0.1 μM (MLLT1): A (Category A: A ≥ 75% degradation) | MLLT1% Degradation @ 1 μM (MLLT1): B (Category B: 50% ≤ B < 75% degradation)

CN1CCC[C@@H]1c1cc2cnc(NC(=O)c3cccc(OCC#Cc4cccc5c4CN(C4CCC(=O)NC4=O)C5=O)c3)cc2[nH]1 (stereo partly drawn) [Example 58, 3-((3-(2-(2,6-dioxopiperidin-3-yl)-1-oxoisoindolin-4-yl)prop-2-yn-1-yl)oxy)-N-(2-((R)-1-methylpyrrolidin-2-yl)-1H-pyrrolo[3,2-c]pyridin-6-yl)benzamide]
IC50 (MV4-11 cells [1]): ≤ 100 nM | MLLT1% Degradation @ 0.01 μM (MLLT1): B (Category B: 50% ≤ B < 75% degradation) | MLLT1% Degradation @ 0.1 μM (MLLT1): A (Category A: A ≥ 75% degradation) | MLLT1% Degradation @ 1 μM (MLLT1): C (Category C: 25% ≤ C < 50% degradation)

CN1CCC[C@@H]1c1cc2cnc(NC(=O)c3ccc(-c4ccn(CCCC#Cc5cccc6c5CN(C5CCC(=O)NC5=O)C6=O)n4)cc3)cc2[nH]1 (mixture of isomers) [Example 20, 4-(1-(5-(2-(2,6-dioxopiperidin-3-yl)-1-oxoisoindolin-4-yl)pent-4-yn-1-yl)-1H-pyrazol-3-yl)-N-(2-((R)-1-methylpyrrolidin-2-yl)-1H-pyrrolo[3,2-c]pyridin-6-yl)benzamide]
IC50 (MV4-11 cells [1]): ≤ 100 nM | MLLT1% Degradation @ 0.01 μM (MLLT1): B (Category B: 50% ≤ B < 75% degradation) | MLLT1% Degradation @ 0.1 μM (MLLT1): B (Category B: 50% ≤ B < 75% degradation) | MLLT1% Degradation @ 1 μM (MLLT1): C (Category C: 25% ≤ C < 50% degradation)

CN1CCC[C@@H]1c1cc2cnc(NC(=O)c3ccc(-c4cnn(CCCC#Cc5ccc6c(c5)CN(C5CCC(=O)NC5=O)C6=O)c4)cc3)cc2[nH]1 (stereo partly drawn) [Example 22, 4-(1-(5-(2-(2,6-dioxopiperidin-3-yl)-1-oxoisoindolin-5-yl)pent-4-yn-1-yl)-1H-pyrazol-4-yl)-N-(2-((R)-1-methylpyrrolidin-2-yl)-1H-pyrrolo[3,2-c]pyridin-6-yl)benzamide]
IC50 (MV4-11 cells [1]): ≤ 100 nM | MLLT1% Degradation @ 0.01 μM (MLLT1): A (Category A: A ≥ 75% degradation) | MLLT1% Degradation @ 0.1 μM (MLLT1): A (Category A: A ≥ 75% degradation) | MLLT1% Degradation @ 1 μM (MLLT1): A (Category A: A ≥ 75% degradation)

CN1CCC[C@@H]1c1cc2cnc(NC(=O)c3ccc(-c4cnn(CCCC5CCN(c6cccc7c6C(=O)N(C6CCC(=O)NC6=O)C7=O)CC5)c4)cc3)cc2[nH]1 (stereo partly drawn) [Example 34, 4-[1-(3-{1-[2-(2,6-dioxopiperidin-3-yl)-1,3-dioxoisoindol-4-yl]piperidin-4-yl}propyl)pyrazol-4-yl]-N-{2-[(2R)-1-methylpyrrolidin-2-yl]-1H-pyrrolo[3,2-c]pyridin-6-yl}benzamide]
IC50 (MV4-11 cells [1]): ≤ 100 nM | MLLT1% Degradation @ 0.1 μM (MLLT1): A (Category A: A ≥ 75% degradation) | MLLT1% Degradation @ 1 μM (MLLT1): A (Category A: A ≥ 75% degradation)

CN1CCC[C@@H]1c1cc2cnc(NC(=O)c3ccc(-c4cnn(CCCC5CCN(c6cccc7c6CN(C6CCC(=O)NC6=O)C7=O)CC5)c4)cc3)cc2[nH]1 (stereo partly drawn) [Example 35, 4-[1-(3-{1-[2-(2,6-dioxopiperidin-3-yl)-1-oxo-3H-isoindol-4-yl]piperidin-4-yl}propyl)pyrazol-4-yl]-N-{2-[(2R)-1-methylpyrrolidin-2-yl]-1H-pyrrolo[3,2-c]pyridin-6-yl}benzamide]
IC50 (MV4-11 cells [1]): ≤ 100 nM | MLLT1% Degradation @ 0.01 μM (MLLT1): A (Category A: A ≥ 75% degradation) | MLLT1% Degradation @ 0.1 μM (MLLT1): A (Category A: A ≥ 75% degradation) | MLLT1% Degradation @ 1 μM (MLLT1): A (Category A: A ≥ 75% degradation)

C[C@@H](C#Cc1cccc2c1CN(C1CCC(=O)NC1=O)C2=O)Oc1ccc(C(=O)Nc2cc3[nH]c([C@H]4CCCN4C)cc3cn2)cc1 (stereo partly drawn) [Example 24, 4-(((2S)-4-(2-(2,6-dioxopiperidin-3-yl)-1-oxoisoindolin-4-yl)but-3-yn-2-yl)oxy)-N-(2-((R)-1-methylpyrrolidin-2-yl)-1H-pyrrolo[3,2-c]pyridin-6-yl)benzamide]
IC50 (MV4-11 cells [1]): ≤ 100 nM | MLLT1% Degradation @ 0.01 μM (MLLT1): A (Category A: A ≥ 75% degradation) | MLLT1% Degradation @ 0.1 μM (MLLT1): A (Category A: A ≥ 75% degradation) | MLLT1% Degradation @ 1 μM (MLLT1): A (Category A: A ≥ 75% degradation)

CN1CCC[C@@H]1c1cc2cnc(NC(=O)c3ccc(CCC#Cc4cccc5c4n(C)c(=O)n5C4CCC(=O)NC4=O)cc3)cc2[nH]1 (stereo partly drawn) [Example 53, 4-(4-(1-(2,6-dioxopiperidin-3-yl)-3-methyl-2-oxo-2,3-dihydro-1H-benzo[d]imidazol-4-yl)but-3-yn-1-yl)-N-(2-((R)-1-methylpyrrolidin-2-yl)-1H-pyrrolo[3,2-c]pyridin-6-yl)benzamide]
IC50 (MV4-11 cells [1]): ≤ 100 nM | MLLT1% Degradation @ 0.01 μM (MLLT1): A (Category A: A ≥ 75% degradation) | MLLT1% Degradation @ 0.1 μM (MLLT1): A (Category A: A ≥ 75% degradation) | MLLT1% Degradation @ 1 μM (MLLT1): B (Category B: 50% ≤ B < 75% degradation)

CN1CCC[C@@H]1c1cc2cnc(NC(=O)CCCC3CN(c4cccc5c4C(=O)N(C4CCC(=O)NC4=O)C5=O)C3)cc2[nH]1 (stereo partly drawn) [Example 48, 4-(1-(2-(2,6-dioxopiperidin-3-yl)-1,3-dioxoisoindolin-4-yl)azetidin-3-yl)-N-(2-((R)-1-methylpyrrolidin-2-yl)-1H-pyrrolo[3,2-c]pyridin-6-yl)butanamide]
IC50 (MV4-11 cells [1]): ≤ 100 nM

CN1CCC[C@@H]1c1[nH]c2cc(NC(=O)c3ccc(OCCC4CCN(c5cccc6c5CN(C5CCC(=O)NC5=O)C6=O)CC4)cc3)ncc2c1Cl (stereo in doubt) [Example 161, N-(3-chloro-2-((R)-1-methylpyrrolidin-2-yl)-1H-pyrrolo[3,2-c]pyridin-6-yl)-4-(2-(1-(2-((rel-S)-2,6-dioxopiperidin-3-yl)-1-oxoisoindolin-4-yl)piperidin-4-yl)ethoxy)benzamide]
IC50 (MV4-11 cells [2]): ≤ 100 nM | MLLT1% Degradation @ 0.01 μM (MLLT1): A (Category A: A ≥ 75% degradation) | MLLT1% Degradation @ 0.1 μM (MLLT1): A (Category A: A ≥ 75% degradation) | MLLT1% Degradation @ 1 μM (MLLT1): A (Category A: A ≥ 75% degradation)
